Laboratory results as given in PubChem BioAssay (NCI).
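Compound exposure: 48 hours, 5 concentrations, 96-well plates. Here, GI50 denotes the concentration required for 50% inhibition of growth. The concentration for full growth arrest is given as TGI.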

Columns and labels:
Experiment in all cases: NCI-60 cell line screen, 48 h
EKVX NSCLC = test system: EKVX NSCLC
SK-MEL-2 melanoma = test system: SK-MEL-2 melanoma
HOP-62 NSCLC = test system: HOP-62 NSCLC
NCI-H522 lung = test system: NCI-H522 lung
MOLT-4 leukemia = test system: MOLT-4 leukemia
OVCAR-4 ovarian = test system: OVCAR-4 ovarian
IGROV1 ovarian = test system: IGROV1 ovarian
HCT-15 colon = test system: HCT-15 colon
786-0 renal = test system: 786-0 renal
OVCAR-3 ovarian = test system: OVCAR-3 ovarian
TK-10 renal = test system: TK-10 renal
UO-31 renal = test system: UO-31 renal
SF-295 CNS = test system: SF-295 CNS
NCI-H460 lung = test system: NCI-H460 lung
SF-268 CNS = test system: SF-268 CNS
SF-539 CNS = test system: SF-539 CNS
SK-MEL-28 melanoma = test system: SK-MEL-28 melanoma
U251 CNS = test system: U251 CNS
M14 melanoma = test system: M14 melanoma
SK-MEL-5 melanoma = test system: SK-MEL-5 melanoma
HOP-92 NSCLC = test system: HOP-92 NSCLC
HCC-2998 colon = test system: HCC-2998 colon
SNB-75 CNS = test system: SNB-75 CNS
LOX IMVI melanoma = test system: LOX IMVI melanoma
MALME-3M melanoma = test system: MALME-3M melanoma
RXF 393 renal = test system: RXF 393 renal
K-562 leukemia = test system: K-562 leukemia
CAKI-1 renal = test system: CAKI-1 renal
UACC-62 melanoma = test system: UACC-62 melanoma
NCI/ADR-RES ovarian = test system: NCI/ADR-RES ovarian
SR leukemia = test system: SR leukemia
OVCAR-5 ovarian = test system: OVCAR-5 ovarian
A498 renal = test system: A498 renal
HT29 colon = test system: HT29 colon
SW-620 colon = test system: SW-620 colon
HCT-116 colon = test system: HCT-116 colon
COLO 205 colon = test system: COLO 205 colon
MCF7 breast = test system: MCF7 breast
PC-3 prostate = test system: PC-3 prostate
BT-549 breast = test system: BT-549 breast
HS 578T breast = test system: HS 578T breast
OVCAR-8 ovarian = test system: OVCAR-8 ovarian
NCI-H226 lung = test system: NCI-H226 lung
SK-OV-3 ovarian = test system: SK-OV-3 ovarian
T-47D breast = test system: T-47D breast
MDA-MB-435 = test system: MDA-MB-435
SNB-19 CNS = test system: SNB-19 CNS
MDA-MB-231 breast = test system: MDA-MB-231 breast
NCI-H23 lung = test system: NCI-H23 lung
DU-145 prostate = test system: DU-145 prostate
RPMI-8226 leukemia = test system: RPMI-8226 leukemia
SN12C renal = test system: SN12C renal
A549 NSCLC = test system: A549 NSCLC
HL-60(TB) leukemia = test system: HL-60(TB) leukemia
CCRF-CEM leukemia = test system: CCRF-CEM leukemia
ACHN renal = test system: ACHN renal
UACC-257 melanoma = test system: UACC-257 melanoma
KM12 colon = test system: KM12 colon

In the case of O=C(NNc1nc2cc(F)cc(F)c2n2cccc12)c1ncccn1, the GI50 (EKVX NSCLC) is reported as 409 nM, the TGI (EKVX NSCLC) is reported as 8.71 µM and the GI50 (SK-MEL-2 melanoma) is reported as 2950 nM. For the same compound, the TGI (SK-MEL-2 melanoma) was 30 µM, the GI50 (HOP-62 NSCLC) was 226 nM and the TGI (HOP-62 NSCLC) was 22.4 µM. For the same compound, the GI50 (NCI-H522 lung) was 1030 nM, the TGI (NCI-H522 lung) was greater than 17 µM and the GI50 (MOLT-4 leukemia) was 613 nM. For the same compound, the TGI (MOLT-4 leukemia) was greater than 30 µM, the GI50 (OVCAR-4 ovarian) was 801 nM and the TGI (OVCAR-4 ovarian) was greater than 23.7 µM. The GI50 (IGROV1 ovarian) was 420 nM, the TGI (IGROV1 ovarian) was 22.4 µM and the GI50 (HCT-15 colon) was 121 nM. The TGI (HCT-15 colon) was 6.21 µM, the GI50 (786-0 renal) was 901 nM and the TGI (786-0 renal) was greater than 14.8 µM. It also gave a GI50 (OVCAR-3 ovarian) of 730 nM, a TGI (OVCAR-3 ovarian) greater than 30 µM and a GI50 (TK-10 renal) of 427 nM. It also gave a TGI (TK-10 renal) of 8.02 µM, a GI50 (UO-31 renal) of 116 nM and a TGI (UO-31 renal) of 3.67 µM. It also gave a GI50 (SF-295 CNS) of 176 nM, a TGI (SF-295 CNS) of 4.99 µM and a GI50 (NCI-H460 lung) of 212 nM. It also gave a TGI (NCI-H460 lung) of 3.9 µM, a GI50 (SF-268 CNS) of 521 nM and a TGI (SF-268 CNS) greater than 30 µM. The GI50 (SF-539 CNS) was 728 nM, the TGI (SF-539 CNS) was greater than 16.6 µM and the GI50 (SK-MEL-28 melanoma) was 682 nM. It also gave a TGI (SK-MEL-28 melanoma) greater than 30 µM, a GI50 (U251 CNS) of 282 nM and a TGI (U251 CNS) greater than 19.1 µM. The GI50 (M14 melanoma) was 390 nM, the TGI (M14 melanoma) was 5.62 µM and the GI50 (SK-MEL-5 melanoma) was 584 nM. For the same compound, the TGI (SK-MEL-5 melanoma) was 2860 nM, the GI50 (HOP-92 NSCLC) was 1240 nM and the TGI (HOP-92 NSCLC) was 20.7 µM. The GI50 (HCC-2998 colon) was 863 nM, the TGI (HCC-2998 colon) was greater than 30 µM and the GI50 (SNB-75 CNS) was 793 nM. It also gave a TGI (SNB-75 CNS) greater than 27.6 µM, a GI50 (LOX IMVI melanoma) of 487 nM and a TGI (LOX IMVI melanoma) of 15.8 µM. The GI50 (MALME-3M melanoma) was 1050 nM, the TGI (MALME-3M melanoma) was 19.6 µM and the GI50 (RXF 393 renal) was 1310 nM. For the same compound, the TGI (RXF 393 renal) was 5.64 µM, the GI50 (K-562 leukemia) was 1000 nM and the TGI (K-562 leukemia) was greater than 30 µM. For the same compound, the GI50 (CAKI-1 renal) was 336 nM, the TGI (CAKI-1 renal) was 9.5 µM and the GI50 (UACC-62 melanoma) was 377 nM. The TGI (UACC-62 melanoma) was greater than 9.21 µM, the GI50 (NCI/ADR-RES ovarian) was 218 nM and the TGI (NCI/ADR-RES ovarian) was 10.3 µM. For the same compound, the GI50 (SR leukemia) was 221 nM, the TGI (SR leukemia) was greater than 30 µM and the GI50 (OVCAR-5 ovarian) was 1180 nM. For the same compound, the TGI (OVCAR-5 ovarian) was greater than 30 µM, the GI50 (A498 renal) was 1200 nM and the TGI (A498 renal) was 5.85 µM. The GI50 (HT29 colon) was 940 nM, the TGI (HT29 colon) was greater than 30 µM and the GI50 (SW-620 colon) was 1010 nM. For the same compound, the TGI (SW-620 colon) was greater than 30 µM, the GI50 (HCT-116 colon) was 341 nM and the TGI (HCT-116 colon) was greater than 21.1 µM. It also gave a GI50 (COLO 205 colon) of 773 nM, a TGI (COLO 205 colon) greater than 30 µM and a GI50 (MCF7 breast) of 862 nM. The TGI (MCF7 breast) was 10.7 µM, the GI50 (PC-3 prostate) was 786 nM and the TGI (PC-3 prostate) was greater than 26.8 µM. For the same compound, the GI50 (BT-549 breast) was 1040 nM, the TGI (BT-549 breast) was 17 µM and the GI50 (HS 578T breast) was 3.18 µM. The TGI (HS 578T breast) was greater than 28.6 µM, the GI50 (OVCAR-8 ovarian) was 509 nM and the TGI (OVCAR-8 ovarian) was greater than 30 µM. The GI50 (NCI-H226 lung) was 585 nM, the TGI (NCI-H226 lung) was 6.67 µM and the GI50 (SK-OV-3 ovarian) was 443 nM. It also gave a TGI (SK-OV-3 ovarian) of 9.81 µM, a GI50 (T-47D breast) of 1060 nM and a TGI (T-47D breast) of 22.7 µM. It also gave a GI50 (MDA-MB-435) of 1240 nM, a TGI (MDA-MB-435) greater than 30 µM and a GI50 (SNB-19 CNS) of 688 nM. The TGI (SNB-19 CNS) was greater than 30 µM, the GI50 (MDA-MB-231 breast) was 1220 nM and the TGI (MDA-MB-231 breast) was greater than 25.3 µM. The GI50 (NCI-H23 lung) was 1350 nM, the TGI (NCI-H23 lung) was greater than 30 µM and the GI50 (DU-145 prostate) was 751 nM. For the same compound, the TGI (DU-145 prostate) was greater than 30 µM, the GI50 (RPMI-8226 leukemia) was 1180 nM and the TGI (RPMI-8226 leukemia) was greater than 30 µM. The GI50 (SN12C renal) was 1200 nM, the TGI (SN12C renal) was greater than 30 µM and the GI50 (A549 NSCLC) was 437 nM. It also gave a TGI (A549 NSCLC) of 8.67 µM, a GI50 (HL-60(TB) leukemia) of 803 nM and a TGI (HL-60(TB) leukemia) of 5.07 µM. For the same compound, the GI50 (CCRF-CEM leukemia) was 327 nM, the TGI (CCRF-CEM leukemia) was greater than 30 µM and the GI50 (ACHN renal) was 164 nM. The TGI (ACHN renal) was 3.83 µM, the GI50 (UACC-257 melanoma) was 1180 nM and the TGI (UACC-257 melanoma) was 15.7 µM. The GI50 (KM12 colon) was 537 nM and the TGI (KM12 colon) was greater than 30 µM.
